Experimental findings from US9546157B2, “Asymmetric piperidinyl-substituted ureas as medicines” (Helsinn Healthcare SA, priority 2014, dated 2017) are described below.

Experiment [1] concerns the target T1, GHSR1a (Homo sapiens, UniProt Q92847).
T1 construct: expressed in transfected cells; host or cells: HEK293
Briefly: Calcium FLIPR assay, GHSR-1a antagonism (reduction of ghrelin response). The format is cell-based. Particulars: HEK293/GHSR1a cells, ghrelin 10 nM. The gist of the method:
(§1)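 Cells stably carrying human GHSR1a were plated a day ahead, dye-loaded, then given test compound. Agonist activity was the calcium rise over 2 minutes after compound addition at t=20 sec; antagonist activity was the reduction of the response to 10 nM ghrelin added together with compound.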

Experiment [2] has as its target T1, GHSR1a. Briefly: Calcium FLIPR assay, GHSR-1a agonism. It is filed as cell-based. Set-up: Emax: unit not given here. Particulars: HEK293/GHSR1a cells. The gist of the method:
as §1

A value given as a limit tells only on which side of the number the result lay.

T1 sequence (Q92847 whole entry): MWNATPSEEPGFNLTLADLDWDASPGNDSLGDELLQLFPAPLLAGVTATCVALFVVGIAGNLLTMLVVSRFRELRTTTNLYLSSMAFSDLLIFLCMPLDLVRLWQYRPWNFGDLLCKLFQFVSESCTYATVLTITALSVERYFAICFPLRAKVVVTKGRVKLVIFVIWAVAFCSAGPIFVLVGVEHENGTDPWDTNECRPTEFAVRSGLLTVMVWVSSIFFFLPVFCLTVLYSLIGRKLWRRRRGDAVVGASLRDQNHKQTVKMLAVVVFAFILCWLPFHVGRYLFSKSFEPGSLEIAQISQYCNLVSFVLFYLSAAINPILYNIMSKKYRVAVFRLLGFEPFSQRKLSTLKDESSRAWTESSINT

In general, IC50 refers to the concentration that gives 50% inhibition. As a reminder, the EC50 is the concentration giving half of the maximal effect. On to `CC(NC(=O)N(C)C1CCN(C)CC1)c1ccc(C#N)c2ccccc12` (stereo not shown) [Compound H0790, 3-(1-(4-cyanonaphthalen-1-yl)ethyl)-1-methyl-1-(1-methylpiperidin-4-yl)urea], for which, on GHSR1a [1], the IC50 turned out to be 35 nM. Besides, on GHSR1a [2], the EC50 worked out at 32 nM and the Emax was found to be 2810.

Turning to `CC(NC(=O)N(C)C1CCN(C)CC1)c1ccc(-c2cncc(Cl)n2)c(Cl)c1Cl` (stereo not shown) [Compound H0791, 3-(1-(2,3-dichloro-4-(6-chloropyrazin-2-yl)phenyl)ethyl)-1-methyl-1-(1-methylpiperidin-4-yl)urea], the 50% inhibitory concentration (IC50) on GHSR1a [1] came out at 75 nM. For the same compound, the EC50 on GHSR1a [2] is above 30000 nM.

Take `CC(NC(=O)N(C)C1CCN(C)CC1)c1ccc(-c2cnc(N)s2)c(Cl)c1Cl` (stereo not shown) [Compound H0792, 3-(1-(4-(2-aminothiazol-5-yl)-2,3-dichlorophenyl)ethyl)-1-methyl-1-(1-methylpiperidin-4-yl)urea]: at GHSR1a [1], the IC50 came out at 16 nM. In addition, on GHSR1a [2], the EC50 was 7 nM and the Emax turned out to be 1096.

Consider `CC(NC(=O)N(C)C1CCN(C)CC1)c1ccc(-c2nccnn2)c(Cl)c1Cl` (stereo not shown) [Compound H0793, 3-(1-(2,3-dichloro-4-(1,2,4-triazin-3-yl)phenyl)ethyl)-1-methyl-1-(1-methylpiperidin-4-yl)urea], for which the IC50 at GHSR1a [1] stood at 21 nM. Also, at GHSR1a [2], the EC50 stood at 22 nM and the Emax was found to be 3501.

As to `CC(NC(=O)N(C)C1CCN(C)CC1)c1ccc(-c2csc(N)n2)c(Cl)c1Cl` (stereo not shown) [Compound H0794, 3-(1-(4-(2-aminothiazol-4-yl)-2,3-dichlorophenyl)ethyl)-1-methyl-1-(1-methylpiperidin-4-yl)urea], on GHSR1a [1], the IC50 came out at 3 nM. For the same compound, on GHSR1a [2], the EC50 is 10 nM and the Emax stood at 4435.

Consider `CC(NC(=O)N(C)C1CCN(C)CC1)c1ccc(-c2nc(N3CCOCC3)nc(N3CCOCC3)n2)c(Cl)c1Cl` (stereo not shown) [Compound H0796, 3-(1-(2,3-dichloro-4-(4,6-dimorpholino-1,3,5-triazin-2-yl)phenyl)ethyl)-1-methyl-1-(1-methylpiperidin-4-yl)urea], for which the IC50 on GHSR1a [1] stood at 826 nM. Further, on GHSR1a [2], the EC50 was found to be 3000 nM and the Emax is reported as 1671.

As for `CC(NC(=O)N(C)C1CCN(C)CC1)c1ccc(-c2cnc(O)nc2)c(Cl)c1Cl` (stereo not shown) [Compound H0797, 3-(1-(2,3-dichloro-4-(2-hydroxypyrimidin-5-yl)phenyl)ethyl)-1-methyl-1-(1-methylpiperidin-4-yl)urea], the IC50 on GHSR1a [1] was determined as 594 nM. Also, on GHSR1a [2], the EC50 is 1800 nM and the Emax is recorded as 2879.

For `CC(NC(=O)N(C)C1CCN(C)CC1)c1ccc(-c2cnc(N)nc2)c(Cl)c1Cl` (stereo not shown) [Compound H0798, 3-(1-(4-(2-aminopyrimidin-5-yl)-2,3-dichlorophenyl)ethyl)-1-methyl-1-(1-methylpiperidin-4-yl)urea], the IC50 on GHSR1a [1] stood at 162 nM. Further, at GHSR1a [2], the 50% effective concentration (EC50) is above 30000 nM.

On to `CC(NC(=O)N(C)C1CCN(C)CC1)c1ccc(-c2cnc(N3CCN(C)CC3)nc2)c(Cl)c1Cl` (stereo not shown) [Compound H0799, 3-(1-(2,3-dichloro-4-(2-(4-methylpiperazin-1-yl)pyrimidin-5-yl)phenyl)ethyl)-1-methyl-1-(1-methylpiperidin-4-yl)urea], for which the half-inhibitory concentration (IC50) on GHSR1a [1] was 5.4 nM. On GHSR1a [2], the EC50 is 14 nM and the Emax was 5031.

`CC(NC(=O)N(C)C1CCN(C)CC1)c1ccc(-c2cnc(F)nc2)c(Cl)c1Cl` (stereo not shown) [Compound H0800, 3-(1-(2,3-dichloro-4-(2-fluoropyrimidin-5-yl)phenyl)ethyl)-1-methyl-1-(1-methylpiperidin-4-yl)urea]: on GHSR1a [1], the IC50 worked out at 1300 nM. The EC50 at GHSR1a [2] is above 30000 nM.

With `CC(NC(=O)N(C)C1CCN(C)CC1)c1ccc(-c2cnc(Cl)nc2)c(Cl)c1Cl` (stereo not shown) [Compound H0801, 3-(1-(2,3-dichloro-4-(2-chloropyrimidin-5-yl)phenyl)ethyl)-1-methyl-1-(1-methylpiperidin-4-yl)urea], the IC50 on GHSR1a [1] amounted to 20 nM. On GHSR1a [2], the EC50 turned out to be 45 nM and the Emax came out at 3915.

For the compound `CC(NC(=O)N(C)C1CCN(C)CC1)c1ccc(-c2cnc(C#N)nc2)c(Cl)c1Cl` (stereo not shown) [Compound H0802, 3-(1-(2,3-dichloro-4-(2-cyanopyrimidin-5-yl)phenyl)ethyl)-1-methyl-1-(1-methylpiperidin-4-yl)urea], the IC50 at GHSR1a [1] came out at 99 nM. Moreover, on GHSR1a [2], the 50% effective concentration (EC50) worked out at 153 nM and the Emax is on record as 4149.

For `CC(NC(=O)N(C)C1CCN(C)CC1)c1ccc(-c2cnc(-n3ccnc3)nc2)c(Cl)c1Cl` (stereo not shown) [Compound H0803, 3-(1-(4-(2-(1H-imidazol-1-yl)pyrimidin-5-yl)-2,3-dichlorophenyl)ethyl)-1-methyl-1-(1-methylpiperidin-4-yl)urea], on GHSR1a [1], the IC50 was 171 nM. At GHSR1a [2], the EC50 stood at 149 nM and the Emax was determined as 2364.

For the compound `CC(NC(=O)N(C)C1CCN(C)CC1)c1ccc(-c2cnc(N(C)C)nc2)c(Cl)c1Cl` (stereo not shown) [Compound H0804, 3-(1-(2,3-dichloro-4-(2-(dimethylamino)pyrimidin-5-yl)phenyl)ethyl)-1-methyl-1-(1-methylpiperidin-4-yl)urea], the IC50 at GHSR1a [1] was found to be 375 nM. At GHSR1a [2], the EC50 was found to be 263 nM and the Emax is given as 2740.

As for `CC(NC(=O)N(C)C1CCN(C)CC1)c1ccc(-c2cnc(NC3CC3)nc2)c(Cl)c1Cl` (stereo not shown) [Compound H0805, 3-(1-(2,3-dichloro-4-(2-(cyclopropylamino)pyrimidin-5-yl)phenyl)ethyl)-1-methyl-1-(1-methylpiperidin-4-yl)urea], the IC50 on GHSR1a [1] was determined as 4 nM. Besides, on GHSR1a [2], the EC50 stood at 9 nM and the Emax is reported as 5433.

With `CNc1ncc(-c2ccc(C(C)NC(=O)N(C)C3CCN(C)CC3)c(Cl)c2Cl)cn1` (stereo not shown) [Compound H0806, 3-(1-(2,3-dichloro-4-(2-(methylamino)pyrimidin-5-yl)phenyl)ethyl)-1-methyl-1-(1-methylpiperidin-4-yl)urea], the half-maximal inhibitory concentration (IC50) at GHSR1a [1] was found to be 1.2 nM. Moreover, at GHSR1a [2], the EC50 amounted to 6.8 nM and the Emax is on record as 5751.

Consider `CC(NC(=O)N(C)C1CCN(C)CC1)c1ccc(-c2cnc(NC(=O)C3CC3)nc2)c(Cl)c1Cl` (stereo not shown) [Compound H0807, N-(5-(2,3-dichloro-4-(1-(3-methyl-3-(1-methylpiperidin-4-yl)ureido)ethyl)phenyl)pyrimidin-2-yl)cyclopropanecarboxamide], for which the IC50 at GHSR1a [1] is 14 nM. Besides, on GHSR1a [2], the EC50 was 24 nM and the Emax is given as 3669.

For the compound `Cc1cc(-c2ccc(C(C)NC(=O)N(C)C3CCN(C)CC3)c(Cl)c2Cl)ncn1` (stereo not shown) [Compound H0808, 3-(1-(2,3-dichloro-4-(6-methylpyrimidin-4-yl)phenyl)ethyl)-1-methyl-1-(1-methylpiperidin-4-yl)urea], on GHSR1a [1], the IC50 came out at 674 nM. At GHSR1a [2], the concentration giving a half-maximal response (EC50) is 90 nM and the Emax was determined as 1494.

As to `CC(NC(=O)N(C)C1CCN(C)CC1)c1ccc(-c2ccc(C#N)cc2)c(Cl)c1Cl` (stereo not shown) [Compound H0809, 3-(1-(2,3-dichloro-4′-cyano-[1,1′-biphenyl]-4-yl)ethyl)-1-methyl-1-(1-methylpiperidin-4-yl)urea], the IC50 at GHSR1a [1] worked out at 149 nM. Besides, at GHSR1a [2], the EC50 is 217 nM and the Emax came out at 2339.

Take `CC(NC(=O)N(C)C1CCN(C)CC1)c1ccc(-c2cccc(F)c2)c(Cl)c1Cl` (stereo not shown) [Compound H0810, 3-(1-(2,3-dichloro-3′-fluoro-[1,1′-biphenyl]-4-yl)ethyl)-1-methyl-1-(1-methylpiperidin-4-yl)urea]: on GHSR1a [1], the half-maximal inhibitory concentration (IC50) amounted to 20 nM. Also, at GHSR1a [2], the EC50 worked out at 22 nM and the Emax is given as 2339.

Regarding `CC(NC(=O)N(C)C1CCN(C)CC1)c1ccc(C#CCN2CCN(C)CC2)c(Cl)c1Cl` (stereo not shown) [Compound H0812, 3-(1-(2,3-dichloro-4-(3-(4-methylpiperazin-1-yl)prop-1-yn-1-yl)phenyl)ethyl)-1-methyl-1-(1-methylpiperidin-4-yl)urea], the IC50 on GHSR1a [1] was determined as 1200 nM. Further, on GHSR1a [2], the EC50 came to 1500 nM and the Emax was 871.

Regarding `CC(NC(=O)N(C)C1CCN(C)CC1)c1ccc(-c2cnc(N3CCCC3)nc2)c(Cl)c1Cl` (stereo not shown) [Compound H0813], the IC50 on GHSR1a [1] is 644 nM. Also, at GHSR1a [2], the EC50 is 528 nM and the Emax was found to be 1605.

`CCN1CCN(c2ncc(-c3ccc(C(C)NC(=O)N(C)C4CCN(C)CC4)c(Cl)c3Cl)cn2)CC1=O` (stereo not shown) [Compound H0814, 3-(1-(2,3-dichloro-4-(2-(4-ethyl-3-oxopiperazin-1-yl)pyrimidin-5-yl)phenyl)ethyl)-1-methyl-1-(1-methylpiperidin-4-yl)urea]: the IC50 on GHSR1a [1] was determined as 926 nM. Moreover, at GHSR1a [2], the EC50 came out at 15 nM and the Emax came to 1097.

Take `Cc1cncc(-c2ccc(C(C)NC(=O)N(C)C3CCN(C)CC3)c(Cl)c2Cl)n1` (stereo not shown) [Compound H0815, 3-(1-(2,3-dichloro-4-(6-methylpyrazin-2-yl)phenyl)ethyl)-1-methyl-1-(1-methylpiperidin-4-yl)urea]: the IC50 on GHSR1a [1] amounted to 176 nM. The EC50 on GHSR1a [2] was above 30000 nM.

On to `CC(NC(=O)N(C)C1CCN(C)CC1)c1ccc(-c2ccc(C3CC3)nc2)c(Cl)c1Cl` (stereo not shown) [Compound H0820, 3-(1-(2,3-dichloro-4-(6-cyclopropylpyridin-3-yl)phenyl)ethyl)-1-methyl-1-(1-methylpiperidin-4-yl)urea], for which the IC50 on GHSR1a [1] came to 5.7 nM. Moreover, at GHSR1a [2], the half-maximal effective concentration (EC50) was determined as 9 nM and the Emax worked out at 3955.

`CC(NC(=O)N(C)C1CCN(C)CC1)c1ccc(-c2cnc(N3CCN(C)CC3)c(C#N)c2)c(Cl)c1Cl` (stereo not shown) [Compound H0821, 3-(1-(2,3-dichloro-4-(5-cyano-6-(4-methylpiperazin-1-yl)pyridin-3-yl)phenyl)ethyl)-1-methyl-1-(1-methylpiperidin-4-yl)urea]: the IC50 at GHSR1a [1] was found to be 2300 nM. For the same compound, the EC50 at GHSR1a [2] is above 30000 nM.
